# Reference: PubChem BioAssay AID1645865 (Buhrlage Lab, Dana-Farber Cancer Institute and Novartis …, 2021)
# The source made the active and inactive calls.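 The calls were made as follows: active = maximal inhibition of the USP30 enzyme reaching 30% or more across the dose series; inactive = the rest.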
# Target: Ubiquitin carboxyl-terminal hydrolase 30 (Homo sapiens) (UniProt Q70CQ3)
# Assay: inhibitors of ubiquitin-specific protease 30 deubiquitylating enzyme, concentration dependence, in vitro biochemical, validation of primary hits (AID 1645865)
# Settings: purified USP30, Ub-rhodamine cleavage, fluorescence, 2 h
# Ubiquitin carboxyl-terminal hydrolase 30 (Homo sapiens), sequence (Q70CQ3 whole entry, looked up): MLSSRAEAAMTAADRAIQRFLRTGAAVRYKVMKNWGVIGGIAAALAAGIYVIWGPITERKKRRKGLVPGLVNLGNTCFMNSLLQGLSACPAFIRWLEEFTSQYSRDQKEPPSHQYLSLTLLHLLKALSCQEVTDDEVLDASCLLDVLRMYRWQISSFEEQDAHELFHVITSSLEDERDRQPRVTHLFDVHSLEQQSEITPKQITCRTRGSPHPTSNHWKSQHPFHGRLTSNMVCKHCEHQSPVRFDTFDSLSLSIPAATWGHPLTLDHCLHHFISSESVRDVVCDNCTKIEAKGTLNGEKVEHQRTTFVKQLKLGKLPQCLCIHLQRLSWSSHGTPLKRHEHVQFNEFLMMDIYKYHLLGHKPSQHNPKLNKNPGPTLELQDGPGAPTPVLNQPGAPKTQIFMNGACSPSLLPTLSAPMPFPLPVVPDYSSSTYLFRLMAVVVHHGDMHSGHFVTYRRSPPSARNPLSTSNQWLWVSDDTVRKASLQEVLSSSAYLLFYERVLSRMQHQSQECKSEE
row,SMILES,IC50
1,CC(C)CC(NC(=O)c1ccc(Cl)cc1Cl)c1nc2ccccc2[nH]1 (stereo unspecified),> 50 µM (inactive)
2,COc1ccc2nc(-c3ccc(NC(=O)c4cccc(OC)c4OC)cc3)cn2n1,1.89 µM
3,Cc1ccc(NC(=O)CSc2nc3c(cc2C#N)C(=O)CCC3)cc1,31.4 µM
4,COc1ccc(-c2cc(-c3ccc(F)cc3)[nH]c(=O)c2C#N)cc1,22.1 µM
5,C[C@@]12c3ccc4c(c3C(=O)c3occ(c31)C(O)C[C@H]2O)CCC4=O (stereo partly specified),> 50 µM (inactive)
6,CC1(C)OC2=C(C(=O)c3cc(O)cc(O)c3C2=O)c2cc(CO)c(O)cc21,> 50 µM (inactive)
7,C[C@@H]1O[C@@H](O[C@H]2[C@H](O[C@H]3[C@H](O[C@H]4CC[C@@]5(C)[C@@H](CC[C@]6(C)[C@@H]5CC=C5[C@@H]7CC(C)(C)CC(=O)[C@]7(C)CC[C@]56C)[C@@]4(C)CO)O[C@H](C(=O)O)[C@@H](O)[C@@H]3O)OC[C@@H](O)[C@@H]2O)[C@H](O)[C@H](O)[C@H]1O,> 50 µM (inactive)
8,C=C(NC(=O)C(=C)NC(=O)c1csc(-c2ccc3c(n2)-c2csc(n2)-c2csc(n2)C(C(C)C2CO2)NC(=O)C(Cc2ccc(O)cc2)NC(=O)c2csc(n2)C(C(O)c2ccccc2)NC(=O)c2nc(sc2C)C(CC(N)=O)NC(=O)c2csc-3n2)n1)C(=O)O (stereo unspecified),> 50 µM (inactive)
9,Cc1cc(C)c2nc3c(cc2c1)CN(Cc1ccco1)C(=O)O3,> 50 µM (inactive)
10,CCCCN1CC(C(=O)Nc2ccc(C(=O)Nc3ccc(Cl)cc3)cc2)CC1=O (stereo unspecified),2.21 µM
11,NC(=O)c1ccc(NC(=O)Cc2cc(-c3ccc(Cl)cc3)on2)cc1,> 50 µM (inactive)
12,CCCc1nc2sc3c(NCCCN4CCOCC4)ncnc3c2c2c1CCC2,> 50 µM (inactive)
13,CC1CCCN(S(=O)(=O)c2cc3cc(F)ccc3oc2=O)C1 (stereo unspecified),21.6 µM
14,Cc1cccc(S(=O)(=O)N2CCc3nc4ccccc4n3CC2)c1,23.4 µM
15,O=C(COc1ccc(Cl)cc1Cl)Nc1ccc2[nH]c(=O)[nH]c2c1,4.06 µM
16,Cc1ccccc1OCCC(=O)Nc1cccc(S(=O)(=O)Nc2ccccc2Cl)c1,> 50 µM (inactive)
17,Cc1cn[nH]c1C1COCCN1C(=O)c1ccc2ncccc2c1 (stereo unspecified),> 50 µM (inactive)
18,CCOC(=O)N1CCN(S(=O)(=O)c2ccc(C(=O)Nc3ccc(Br)cc3)cc2)CC1,1.65 µM
19,O=C(c1ccc(Cl)cc1)c1c[nH]cc1-c1c(F)cccc1Cl,19 µM
20,COCCNC(=O)c1ccn(-c2ccc3ccc(-c4ccncc4)cn23)n1,> 50 µM (inactive)
21,CC(C)NC(=O)Cn1ccn2nc(-c3ccc(Cl)cc3)cc2c1=O,3.6 µM
22,COc1cc(Cl)ccc1C(=O)Nc1cccc(-n2cnnn2)c1C,10.2 µM

row,SMILES,IC50
1,CC1=C(c2ccc(F)cc2)S(=O)(=O)NC1=NCC(=O)Nc1ccc(F)cc1,21 µM
2,Cc1cc(C)nc(-n2nc(C)c3c2NC(=O)CSC3c2ccc(F)cc2F)n1 (stereo unspecified),31.3 µM
3,Cc1cc(C)n2nc(CNc3cccc(Cl)c3)nc2n1,> 50 µM (inactive)
4,O=C(CC1Oc2ccccc2NC1=O)Nc1ccccc1Br (stereo unspecified),44.3 µM
5,CCC(=O)N1c2ccccc2NC2=C(C(=O)CC(c3ccccc3OCc3ccccc3)C2)C1c1ccccc1 (stereo unspecified),2.39 µM
6,COc1ccc(C(=O)Nc2n[nH]c(C)c2-c2cccc(C)c2)c(OC)c1,2.31 µM
7,Fc1ccc(Cn2ccc(-c3cnc(-c4ccccc4)s3)n2)cc1,> 50 µM (inactive)
8,Nc1c(C(=O)NCc2ccc3c(c2)OCO3)nnn1Cc1ccc(Br)cc1F,2.35 µM
9,Cc1cc(O)c2c3c(c(O)cc2c1)C(=O)c1c(O)cccc1C3=O,> 50 µM (inactive)
10,N#Cc1cccc(S(=O)(=O)N2CCc3nc4ccccc4n3CC2)c1,20.3 µM
11,C=C1CCC2[C@](C)(CCC[C@]2(C)C(=O)OC)[C@H]1CCc1ccoc1C[N+](C)(C)Cc1ccccc1 (stereo partly specified),16.6 µM
12,COc1cccc(CN2CCc3nc4nc(C)ccc4cc3C2)c1,> 50 µM (inactive)
13,CCc1nc(-c2cc(C(=O)N3CCOCC3)c3ccccn23)cs1,> 50 µM (inactive)
14,Cc1cc(C(=O)Nc2ccc3nc(N4CCN(c5ncccn5)CC4)cc(C)c3c2)ccc1[N+](=O)[O-],2.24 µM
15,COCCn1c(=O)[nH]c2cc(C(=O)NCCNc3ccc([N+](=O)[O-])cc3C#N)ccc2c1=O,2.35 µM
16,O=C(NCc1ccc(F)cc1)C1CCCN(c2cnc3nccnc3c2)C1 (stereo unspecified),> 50 µM (inactive)
17,O=C(Cn1c(=O)c2sccc2n(Cc2ccc([N+](=O)[O-])cc2)c1=O)NCCc1ccccc1,21.7 µM
18,CO[C@H]1/C=C/OC2(C)Oc3c(C)c(O)c4c(c3C2=O)C2(C=C(NC(=O)/C(C)=C\C=C\[C@H](C)[C@H](O)[C@@H](C)[C@@H](O)[C@@H](C)[C@H](OC(C)=O)C1C)C4=O)OCC(=O)O2 (stereo partly specified),> 50 µM (inactive)
19,O=C(NCCCN1CCc2ccccc2C1)c1cc2c(s1)CS(=O)(=O)C2,> 50 µM (inactive)
20,CN(C)c1ccc(/C=N/NC(=O)c2ccc(Cl)cc2)cc1,10.7 µM
21,O=C(O)c1ccccc1C(=O)Nc1ccc(SC(C(=O)Nc2ccccc2)c2ccccc2)cc1 (stereo unspecified),> 50 µM (inactive)
22,COc1ccc(NC(=O)c2cc(-c3cccnc3)n[nH]2)cc1Cl,1.16 µM

row,SMILES,IC50
1,O=C(Cn1c(=O)n(Cc2ccc3c(c2)OCO3)c(=O)c2ncccc21)c1ccc(Cl)cc1,32.1 µM
2,CC1OC2CC(O)C1(O)C1=C2C(O)=C(C(N)=O)C(=N)C1=O (stereo unspecified),> 50 µM (inactive)
3,O=C(CSc1nc2ccncc2[nH]1)Nc1ccc(Br)cc1F,27.4 µM
4,COC(=O)C1C(c2ccc(Cl)cc2Cl)C2(C(=O)c3ccccc3C2=O)C2C=Cc3ccccc3N12 (stereo unspecified),> 50 µM (inactive)
5,CCc1c(C)c(C#N)c2nc3ccccc3n2c1N1CCN(C2CCCC2)CC1,1.7 µM
6,N#C/C(=C\c1ccc(-c2cc(Cl)ccc2Cl)o1)c1nnc2n1CCCCC2,> 50 µM (inactive)
7,COc1ccc(CC(=O)Nc2nc(-c3ccco3)c(-c3ccco3)s2)cc1,> 50 µM (inactive)
8,CC1(C(=O)NCc2ccccc2)Cn2c(cc3ccccc32)C(=O)N1Cc1ccccc1 (stereo unspecified),> 50 µM (inactive)
9,CC(C)(C)c1cc(C[C@@H]2C[C@H](NC(=O)N3CCOCC3)C2(C)C)no1,22.2 µM
10,O=C(O)c1nccnc1C(=O)N1CCc2ccccc2C1,> 50 µM (inactive)
11,Cc1nc(-c2ccccn2)sc1C(=O)Nc1ccc(C#N)cc1,> 50 µM (inactive)
12,Cc1ccc(C(=O)N2CCCC3(C2)Nc2cccnc2NC3=NC2CCCC2)s1 (stereo unspecified),> 50 µM (inactive)
13,CCC(=O)Nc1nc2cc(NC(=O)Nc3cc(C)cc(C)c3)ccc2s1,1.65 µM
14,O=c1ncn(Cc2ccc3c(c2)OCO3)cc1-c1ncc(C(F)(F)F)cc1Cl,48.2 µM
15,CS(=O)(=O)c1ccc(NC(=O)C2CN(c3nc4c(F)cccc4s3)C2)cc1,31.1 µM
16,Cc1c(C(=O)Nc2cccc(C(F)(F)F)c2)cnn1-c1ccccn1,36 µM
17,Cc1noc(C)c1S(=O)(=O)Nc1ccc(C(=O)Nc2ccc3c(c2)OCCO3)cc1,> 50 µM (inactive)
18,Cc1cc(C(=O)N2CCOCC2)c(C)n1-c1ccc(O)cc1,> 50 µM (inactive)
19,CC(=O)c1ccc(NC(=O)C[n+]2cc(-c3ccc(Cl)cc3)n3c2CCC3)cc1,> 50 µM (inactive)
20,CCn1ccc2c(cc(C(=O)Nc3cc(F)ccc3F)n2C)c1=O,> 50 µM (inactive)
21,O=C(c1cc(Cl)ccc1Cl)N1CCN(c2ccc3nnc(-c4ccco4)n3n2)CC1,> 50 µM (inactive)

# Further lines, results first:
row,IC50,SMILES
1,2.6 µM,Cc1ccc2c(c1)c(=O)c(C(=O)c1ccccc1)cn2CC(=O)Nc1ccc2c(c1)OCCO2
2,> 50 µM (inactive),COc1c2nc3ccccc3oc-2cc(=O)c1OC
3,35.1 µM,O=C(/C=C/c1cnc2ccccc2c1)NCc1ccccc1
4,3.41 µM,Cc1ccc(Cn2c(=O)c3ccccc3n3c(CCC(=O)N4CCN(c5ccccn5)CC4)nnc23)cc1
5,24.4 µM,Cc1nc(N2CCCC2)ncc1-c1cc(=O)[nH]c(N2CCc3ccccc3C2)n1
6,2.63 µM,Cc1ccc2cccc(OCc3nnc(SCC(=O)c4ccc(Cl)cc4)n3C)c2n1
7,2.19 µM,O=C(Nc1nc2ccccc2s1)c1ccc2c(c1)C(=O)N(Cc1cccnc1)C2=O
8,37.3 µM,CCOc1cc(C2C3=C(CC(C)(C)CC3=O)Nc3onc(C)c32)ccc1O (stereo unspecified)
9,> 50 µM (inactive),C=C1Nc2ccccc2C(=O)N1c1cccc(NC(=O)c2ccc(C)c(C)c2)c1
10,> 50 µM (inactive),CC(C)C1Cc2c(sc3nc(SCC(=O)Nc4cccc5ccccc45)nc(N)c23)CO1 (stereo unspecified)
11,> 50 µM (inactive),O=C1c2ccccc2-n2c1nc1ccccc1c2=O
12,> 50 µM (inactive),O=C(COC(=O)c1ccc2ncsc2c1)Nc1ccccc1F
13,> 50 µM (inactive),CCCC(=O)Nc1ccc(SCc2nnc(-c3ccccc3)o2)cc1
14,20.5 µM,Cc1cc(C(=O)NC2(O)C(=O)c3ccccc3C2=O)n(C)n1
15,34.8 µM,COc1cccc(OCCCn2c(C(C)NC(=O)c3ccco3)nc3ccccc32)c1 (stereo unspecified)
16,34.5 µM,O=C(Cn1cncc(-c2nc(-c3ccccc3)cs2)c1=O)NC1CCCC1

row,IC50,SMILES
1,> 50 µM (inactive),Cc1cccc(C(=O)Nc2ccc3c(c2)nc(CSc2nccc(C)n2)n3C)c1
2,> 50 µM (inactive),Cc1ccccc1Cn1ccc(NC(=O)c2noc(C)c2[N+](=O)[O-])n1
3,45.5 µM,CCOC(=O)c1sc2c(c1C)c(=O)n(Cc1ccccc1)c(=O)n2CC(N)=O
4,> 5 µM (inactive),COCCCn1c(C(=O)Nc2ccccc2OC)cc2c(=O)n3ccccc3nc21
5,1.56 µM,Cn1c2ccccc2c(=O)c2c(=O)n(Cc3ccccc3)c(-c3ccco3)nc21
6,> 50 µM (inactive),Cc1cc(NC(=O)COc2ccc3oc4ccccc4c3c2)no1
7,29.2 µM,Cc1ccc(Nc2nc(NCCc3ccccc3)nc3c2cnn3C)cc1
8,> 50 µM (inactive),COc1cccc(C(=O)NCc2[nH]nc3ccccc23)c1
9,> 50 µM (inactive),CCC(=O)OCc1cnc(C)c2oc(=O)c(-c3nc(-c4ccccc4)no3)cc12
10,17.7 µM,Cc1ccc(NC(=O)CNC(=O)c2cc3ccccc3o2)cc1
11,0.687 µM,Cc1ccccc1NC(=O)Nc1ccccc1OCc1cc(=O)n2cccc(C)c2n1
12,30.6 µM,O=C(COc1ccc2oc3c(c2c1)CCCC3)Nc1ccccn1
13,34.3 µM,COc1cccc(C(=O)NCC(=O)Nc2nc3ccccc3[nH]2)c1
14,> 50 µM (inactive),Cc1nn(-c2ccccc2)c(C)c1C(=O)OCC(=O)Nc1cccc(C#N)c1
15,1.46 µM,CSc1cccc(NC(=O)COc2cccc3ccccc23)c1
